According to patent publication US11530244B2, “Cyclic polypeptides for PCSK9 inhibition” (priority 2018, dated 2022):
Starred links: 1 amine or outer side, 2 acyl side, 3 side chain; linkers in the order of their positions; H or OH if unused. Positions of bridges follow the written chain, without caps; N, C: chain ends. Non-standard residues stand in square brackets, D forms with d. Residues, ends and D or L forms follow the SMILES beside them. ξ: configuration not given here. Trp(5-F) = N[C@@H](Cc1c[nH]c2ccc(F)cc12)C(=O)O; Pyridine(3,5-bisCH2) = c1ncc(C[*:2])cc1C[*:1]; Phe(4-CH2NH2) = NCc1ccc(C[C@H](N)C(=O)O)cc1; X16 = O=C([C@H](CCCCCC=[*:3])N[*:1])[*:2]; Pro(cis-4-F) = O=C(O)[C@@H]1C[C@H](F)CN1; X17 = O=C(CCSCc1ccc(CSCCN[*:1])cc1)[*:2]; Pro(4S-NH2) = N[C@@H]1CN[C@H](C(=O)O)C1; X4 = O=C(CCSCc1cccc(CSCCN[*:1])c1)[*:2]; Hag = O=C([C@H](CCC=[*:3])N[*:1])[*:2]; mXylylene = c1cc(C[*:1])cc(C[*:2])c1; AEF = NCCOc1ccc(C[C@H](N)C(=O)O)cc1; NMeY = CN[C@@H](Cc1ccc(O)cc1)C(=O)O; Adipoyl = O=C(CCCCC(=O)[*:2])[*:1]; X41 = O=C(Cc1ccc(N[*:1])cc1)[*:2]; Aad = N[C@@H](CCCC(=O)O)C(=O)O; NMeL = CN[C@@H](CC(C)C)C(=O)O; αMeP = C[C@@]1(C(=O)O)CCCN1; ξD = NC(CC(=O)O)C(=O)O; Mpa = O=C(O)CCS

Tests used:
[1] = target: human PCSK9 / human LDLR EGFa domain interaction (Homo sapiens (Human), UniProt Q8NBP7); assay: TR-FRET assay of inhibition of the PCSK9-LDLR protein-protein interaction; format: binding; conditions: TR-FRET, 20 nM human PCSK9, 20 nM human LDLR EGFa domain, 2 hours room temperature; read-out: IC50
How it was run: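 20 nM biotin-avitag PCSK9 + 20 nM His-LDLR EGFa; 5 nM Ulight-SA / 5 nM Eu-anti-His; 2 h RT; HEPES 50 mM, NaCl 150 mM, CaCl2 5 mM, 0.01% BSA, 0.01% P20. Half-maximal inhibition, 4-parameter fit.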

PCSK9 = PCSK9 (Homo sapiens (Human), UniProt Q8NBP7); assay: PCSK9 Alexa FRET Standard assay (displacement of AlexaFluor647 tagged cyclic peptide Reagent A); format: binding; conditions: PCSK9 Alexa FRET Standard assay, 0.5 nM PCSK9, 20 nM AF cyclic peptide Reagent A; read-out: IC50
How it was run: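 TR-FRET displacement: 0.5 nM biotinylated PCSK9 with 1.25 nM Strep-Eu and 20 nM AlexaFluor-tagged cyclic peptide (final) in 50 mM HEPES pH 7.4, 0.15 M NaCl, 5 mM CaCl2, 0.01% BSA, 0.01% P20, ≥2 h at room temperature. IC50 from sigmoidal fit, converted to Ki via peptide KD; falling Eu counts flagged false positives.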

human PCSK9 / human LDLR EGFa domain interaction, sequence (Q8NBP7 153-692): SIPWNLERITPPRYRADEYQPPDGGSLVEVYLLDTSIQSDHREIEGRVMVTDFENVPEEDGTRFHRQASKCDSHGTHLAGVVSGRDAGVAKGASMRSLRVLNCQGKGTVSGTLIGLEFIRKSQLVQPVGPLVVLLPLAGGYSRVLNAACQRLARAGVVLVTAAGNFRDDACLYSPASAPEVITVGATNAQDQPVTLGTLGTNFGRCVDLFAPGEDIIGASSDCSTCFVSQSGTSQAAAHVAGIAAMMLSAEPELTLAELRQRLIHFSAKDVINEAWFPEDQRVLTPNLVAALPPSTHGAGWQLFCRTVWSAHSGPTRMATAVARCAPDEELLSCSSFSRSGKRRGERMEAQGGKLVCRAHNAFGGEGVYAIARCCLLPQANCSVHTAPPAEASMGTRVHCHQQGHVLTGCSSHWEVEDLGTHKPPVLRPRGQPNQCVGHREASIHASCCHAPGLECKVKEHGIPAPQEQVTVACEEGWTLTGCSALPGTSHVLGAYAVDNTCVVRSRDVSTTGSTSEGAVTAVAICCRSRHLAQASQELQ
human PCSK9 / human LDLR EGFa domain interaction, sequence (Q8NBP7 31-152 partner): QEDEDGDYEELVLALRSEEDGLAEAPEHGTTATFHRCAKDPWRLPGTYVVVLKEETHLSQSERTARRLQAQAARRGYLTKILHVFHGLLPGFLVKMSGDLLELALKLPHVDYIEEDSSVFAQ
PCSK9, sequence (Q8NBP7 153-692): as the sequence (Q8NBP7 153-692) above

Row | IC50 [1] | IC50 (PCSK9) | Structure (SMILES)
1 | 0.1 to 100 nM | 0.11 to 100 nM | COc1ccc(C[C@@H]2NC(=O)[C@H]([C@@H](C)O)NC(=O)[C@@H]3CCCN3C(=O)[C@H](Cc3c[nH]c4ccc(F)cc34)NC(=O)[C@H](Cc3c[nH]c4ccc(F)cc34)NC(=O)[C@@H](C)NC(=O)[C@H](CCCCN)NC(=O)CCSCc3cncc(c3)CSC[C@@H](C(N)=O)NC(=O)[C@]3(C)CCCN3C2=O)cc1 [Compound 058] ([Mpa]K[dA][Trp(5-F)][Trp(5-F)]PTY(Me)[αMeP]C-NH2; linker 1-10 via Pyridine(3,5-bisCH2))
2 | 0.1 to 100 nM | 100 to 1000 nM | COc1ccc(C[C@@H]2NC(=O)[C@H]([C@@H](C)O)NC(=O)[C@@H]3C[C@H](F)CN3C(=O)[C@H](Cc3c[nH]c4ccc(F)cc34)NC(=O)[C@H](Cc3c[nH]c4ccc(F)cc34)NC(=O)[C@@H](C)NC(=O)[C@H](CCCCN)NC(=O)[C@@H](NC(C)=O)CC(=O)NCCOc3ccc(cc3)C[C@@H](C(N)=O)NC(=O)[C@]3(C)CCCN3C2=O)cc1 [Compound 067] (Ac-DK[dA][Trp(5-F)][Trp(5-F)][Pro(cis-4-F)]TY(Me)[αMeP][AEF]-NH2; lactam 1-10)
3 | 100 to 1000 nM | 0.11 to 100 nM | COc1ccc(C[C@@H]2NC(=O)[C@@H]3CCCCCCCO[C@H]4C[C@@H](C(=O)N3)N(C4)C(=O)[C@H](Cc3c[nH]c4ccc(F)cc34)NC(=O)[C@H](Cc3c[nH]c4ccc(F)cc34)NC(=O)[C@@H](C)NC(=O)[C@H](CCCCN)NC(=O)CCSCc3cccc(c3)CSC[C@@H](C(N)=O)NC(=O)[C@]3(C)CCCN3C2=O)cc1 [Compound 511]
4 | 21000 to 50000 nM | 21000 to 50000 nM | COc1ccc(C[C@@H]2NC(=O)[C@H](CCCC(=O)O)NC(=O)[C@@H]3C[C@H](N)CN3C(=O)[C@H](Cc3c[nH]c4ccc(F)cc34)NC(=O)[C@H](Cc3c[nH]c4ccc(F)cc34)NC(=O)[C@@H](C)NC(=O)[C@H](C)NC(=O)CCSCc3ccc(cc3)CSCCNC(=O)[C@]3(C)CCCN3C2=O)cc1 [Compound 345] (cyclo(A[dA][Trp(5-F)][Trp(5-F)][Pro(4S-NH2)][Aad]Y(Me)[αMeP][X17]))
5 | 100 to 1000 nM | 100 to 1000 nM | COc1ccc(C[C@@H]2NC(=O)[C@H]([C@@H](C)O)NC(=O)[C@@H]3CCCCC/C=C/CC[C@H](NC(=O)[C@@H](C)NC(=O)[C@H](C)NC(=O)CCSCc4cccc(c4)CSCCNC(=O)[C@]4(C)CCCN4C2=O)C(=O)N[C@@H](Cc2c[nH]c4ccc(F)cc24)C(=O)N3)cc1 [Compound 496] (cyclo(A[dA][Hag][Trp(5-F)][X16]TY(Me)[αMeP][X4]); staple (E) 3-5)

Continued, compound first:

Row | Structure (SMILES) | IC50 [1] | IC50 (PCSK9)
6 | C[C@@H]1NC(=O)CCCCC(=O)NCc2ccc(cc2)C[C@@H](C(N)=O)NC(=O)[C@]2(C)CCCN2C(=O)[C@H](Cc2ccc(O)cc2)NC(=O)[C@H](Cc2cnc[nH]2)NC(=O)[C@H](CC(=O)O)NC(=O)[C@H](Cc2c[nH]c3ccc(F)cc23)NC(=O)[C@H](Cc2c[nH]c3ccc(F)cc23)NC(=O)CNC1=O [Compound 370] (AG[Trp(5-F)][Trp(5-F)]DHY[αMeP][Phe(4-CH2NH2)]-NH2; linker N-9 via Adipoyl) | 0.1 to 100 nM | 100 to 1000 nM
7 | COc1ccc(C[C@@H]2NC(=O)CCSCc3cccc(c3)CSC[C@@H](C(N)=O)NC(=O)[C@]3(C)CCCN3C(=O)[C@H](Cc3ccc(OC)cc3)NC(=O)[C@H]([C@@H](C)OC)NC(=O)[C@H](CC(C)C)N(C)C(=O)[C@H](Cc3ccc(OC)cc3)NC(=O)[C@H](Cc3ccc(OC)cc3)N(C)C(=O)[C@@H](CC(C)C)NC2=O)cc1 [Compound 036] ([Mpa]Y(Me)[dL][NMeY](Me)Y(Me)[NMeL]T(Me)Y(Me)[αMeP]C-NH2; linker 1-10 via mXylylene) | 0.1 to 100 nM | 0.11 to 100 nM
8 | COc1ccc(C[C@@H]2NC(=O)[C@H](Cc3cnc[nH]3)NC(=O)[C@H](CC(=O)O)NC(=O)[C@H](Cc3c[nH]c4ccc(F)cc34)NC(=O)[C@H](Cc3c[nH]c4ccc(F)cc34)NC(=O)[C@@H](C)NC(=O)Cc3ccc(cc3)NC(=O)CC(C(=O)O)NC(=O)[C@]3(C)CCCN3C2=O)cc1 (stereo partly drawn) [Compound 402] ([X41][dA][Trp(5-F)][Trp(5-F)]DHY(Me)[αMeP][ξD]-OH; lactam N-9) | 1000 to 12100 nM | 1000 to 12100 nM
9 | COc1ccc(C[C@@H]2NC(=O)[C@H](Cc3cnc[nH]3)NC(=O)[C@H](CC(=O)O)NC(=O)[C@H](Cc3c[nH]c4cc(F)ccc34)NC(=O)[C@H](Cc3c[nH]c4ccc(F)cc34)NC(=O)[C@@H](C)NC(=O)[C@H](CCCCN)NC(=O)CCCc3cn(nn3)-c3ccc(cc3)C[C@@H](C(N)=O)NC(=O)[C@]3(C)CCCN3C2=O)cc1 [Compound 369] | 0.1 to 100 nM | 100 to 1000 nM
